Assays:
[1] = system: 3T3-L1 cells; assay: Adipocyte differentiation suppressive action (fat droplet quantification); format: cell-based
Method: 3T3-L1 cells (ATCC) were cultured in a growth medium until confluence. 1 μM dexamethasone, 0.5 mM 3-isobutyl-1-methylxanthine and 5 μg/mL insulin were added to the medium, and the cells were cultured for 3 days. The medium was exchanged with a growth medium containing 4 μg/mL insulin and the cells were cultured for 3 more days. When the compound (1 μM) was to be added, it was added after the cells reached confluence, and the cells were cultured for 6 days. After completion of the culture period, the fat droplet formed was quantified using Adipogenesis Assay Kit (CHEMICON). The numerical values in Table 12 show the relative value when without addition of the compound as 100% (n is the number of samples).

[2] = Anti-obesity action in high-fat diet-loaded mouse; format: in vivo, male C57BL/6J mouse; settings: for plasma total cholesterol concentration (mg/dL) before administration: before administration (baseline); for plasma total cholesterol concentration (mg/dL) before administration / plasma total cholesterol concentration (mg/dL) after administration for 4 weeks / body weight: mean ± SD, n=6; for body weight: once a day for 4 weeks, administration completion day
Method: As male C57BL/6J mouse (CLEA Japan, Inc.), mice fed with a high-fat diet (45 kcal % fat, D12451, research diet) for 40 weeks from 5 weeks old were used. After acclimation bred for 3 weeks, the body weight, ingestion amount, body fat percentage, plasma triglyceride, insulin and leptin concentration were measured, and the mice were divided into 4 groups at 6 per group without difference between them. Plasma total cholesterol concentration was measured using Hitachi automatic analyzer 7180. The compound of Example 1 was suspended in aqueous methylcellulose solution, and the suspension was orally administered repeatedly to 3 groups of the […] divided into 4 groups at 3 mg/kg, 10 mg/kg or 30 mg/kg once a day for 4 weeks. A 0.5% aqueous methylcellulose solution was orally administered similarly to the remaining one group, and the group was used as a control group. On the administration completion day, the body weight and plasma total cholesterol concentration were measured. The numerical values in Table 5 show mean±standard deviation at n=6 (n is the number of mice).

[3] = Anti-diabetes action in KKA^y mouse (glycohemoglobin); format: in vivo, female KKA^y mouse; settings: 0.01% mixed with feed, 2 weeks; variation from value before administration; n=6
Method: Female KKA^y mice (12-13 week-old, CLEA Japan, Inc.) were bred allowing free ingestion of both feed and water. The mice were acclimation bred with powder CE-2 (CLEA Japan, Inc.) from 2 weeks before administration of the test compound. The body weight, blood glycohemoglobin % (GHb %) value, plasma glucose, triglyceride and total cholesterol concentration were measured, and the mice were divided into 3 groups or 5 groups (6 mice/group) such that those measurement values are uniform at the start of the administration. The compound was administered by mixing (0.01-0.03%) in the feed for 2 weeks. GHb % was measured on the last day. GHb % was measured using Tosoh Corporation automatic glycohemoglobin analyzer (HLC-723GHbV Alc2.2). The numerical values in Table 11 show the variation from the value before administration to the measured value after administration in mean±standard deviation at n=6 (n is the number of mice).

[4] = system: NF-kB; assay: NF-kB activation suppressive action in muscle cell (luciferase reporter, TNF-α induced); format: cell-based, mouse; settings: TNF-α 10 ng/mL, activity without TNF-α = 1, n=8
Method: • (1) C2C12 cells introduced with NF-kB reporter plasmid (C2C12/NF-kB-luc, Panomics) was plated at 20000 cells/cm^2, 100 μg/ml hygromycin was added thereto, and the cells were cultured in a growth medium in the same manner as in Example 1. • (2) The cells were cultured in a differentiation medium containing the compound of Example 1, Example 8, Example 9, Example 10 or Example 11 for 1 hr, TNF-α was added thereto such that the concentration is 10 ng/mL, and the cells were cultured for 4 hr. • (3) The luciferase activity in the medium was measured using a Stedy-Glo luciferase assay system (Promega). The NF-kB activity was evaluated by measuring the luciferase activity.
The data in Table 6 to Table 10 show mean±standard deviation at n=8 (n is the number of samples).

[5] = system: Mouse-derived myoblast line C2C12 cell; assay: Cell differentiation promoting activity in myoblast (creatine kinase activity); format: cell-based; settings: 48 h, 1 μM compound, 2 days in differentiation medium, CK activity without compound = 100%, read-out: creatinine kinase activating action (%)
Method: • (1) Mouse-derived myoblast line C2C12 cell (Dainippon Pharmaceutical Co., Ltd.) was subcultured in a high glucose Eagle's modified Dulbecco's medium (GIBCO) containing 10% calf fetal bovine serum (GIBCO), 100 unit/mL penicillin and 100 μg/mL streptomycin (hereinafter to be referred to as a growth medium), plated at 5000 cells/cm^2 and cultured at 37° C., under 5% CO2. • (2) When the cells reached subconfluence, the medium was exchanged with a high glucose Eagle's modified Dulbecco's medium (GIBCO) containing 2% horse serum (GIBCO) and penicillin, streptomycin and a test compound (hereinafter to be referred to as a differentiation medium), and the cells were cultured for 2 days. To the control group was added DMSO solution instead of the test compound. • (3) The cells were washed with PBS, 0.5% NP-40 solution was added thereto, and the cells were lysed by freeze-thawing. The cell extract was centrifuged, and the creatine kinase activity in the supernatant was measured as an index of muscle differentiation. The creatine kinase activity was measured using CPKII Test Wako (Wako Pure Chemical Industries, Ltd.) according to the manual of the kit. The tests using the compounds of Example 7 to Example 14 were corrected based on the total protein amount measured using CA Protein Assay Kit (Thermo Scientific).
The numerical values in Table 3 show CK activity of the compound addition group with the CK activity without addition of the compound as 100%, and 1 μM of the compound was added for the measurement.

[6] = system: differentiated C2C12 muscle cell; assay: Sugar metabolism promoting activity in muscle cell (lactic acid production); format: cell-based, mouse; settings: C2C12 myotube, 1 μM compound, 2 days; lactic acid concentration without compound = 100%
Method: • (1) In the same manner as in Experimental Example 1, C2C12 cell was cultured in a growth medium. When the cells reached subconfluence, the medium was exchanged with a differentiation medium, and the cells were cultured for 3 to 4 days while exchanging the medium every 2 or 3 days until the cells differentiated to form a myotube. • (2) After confirmation of myotube formation under a microscope, the compound (1 μM) was added to a differentiation medium and cultured for 2 days. The cells were washed with Krebs-Ringer HEPES phosphate buffer (10 mM HEPES, pH 7.4, 131 mM NaCl, 4.7 mM KCl, 2.5 mM CaCl2-2H2O, 1.2 mM MgSO4-7H2O, 1.2 mM KH2PO4), the medium was exchanged with Krebs-Ringer HEPES phosphate buffer containing 5 mM glucose, 0.2% fatty acid-free bovine serum albumin, and the cells were cultured at 37° C. for 4 hr. • (3) The lactic acid concentration of the culture supernatant was measured using Detarminer LA kit (Kyowa Medex Co., Ltd.).
The numerical values in Table 4 show the lactic acid concentration of the compound addition group with the lactic acid concentration without addition of the compound as 100%.

In the case of `O=C(/C=C/c1cnccc1-c1ccc(F)cc1)Nc1ccc(CCc2nnco2)cc1` [Example 1, (2E)-3-[4-(4-fluorophenyl)pyridin-3-yl]-N-{4-[2-(1,3,4-oxadiazol-2-yl)ethyl]phenyl}prop-2-enamide], the “lipid accumulation amount in the cell in fat differentiation, result in words” value ([1]; 1 μM) is reported as “decrease the lipid accumulation amount in the cell”, the “lipid accumulation (%)” value ([1]; 1 μM compound, 6 days, without compound = 100%, n=2) is reported as 53% and the “plasma total cholesterol concentration (mg/dL) before administration” value ([2]; 3 mg/kg/day group) is reported as 265.5 ± 29.7 mg/dL. For the same compound, the “plasma total cholesterol concentration (mg/dL) after administration for 4 weeks” value ([2]; 3 mg/kg/day oral) was 225.9 ± 27.7 mg/dL, the “body weight” value ([2]; 3 mg/kg/day oral) was 52.5 ± 2.5 g and the “plasma total cholesterol concentration (mg/dL) before administration” value ([2]; 10 mg/kg/day group) was 270.9 ± 24.5 mg/dL. For the same compound, the “plasma total cholesterol concentration (mg/dL) after administration for 4 weeks” value ([2]; 10 mg/kg/day oral) was 192.8 ± 27.6 mg/dL, the “body weight” value ([2]; 10 mg/kg/day oral) was 49.0 ± 3.2 g and the “plasma total cholesterol concentration (mg/dL) before administration” value ([2]; 30 mg/kg/day group) was 275.9 ± 18.2 mg/dL. The “plasma total cholesterol concentration (mg/dL) after administration for 4 weeks” value ([2]; 30 mg/kg/day oral) was 161.7 ± 16.9 mg/dL, the “body weight” value ([2]; 30 mg/kg/day oral) was 44.9 ± 3.1 g and the “body weight decreasing action” value ([2]; administration at 10 mg/kg or above, result in words) was “showed a body weight decreasing action”. For the same compound, the “plasma total cholesterol concentration, result in words” value ([2]; high-fat diet-loaded mouse, 4 weeks oral) was “decreased total cholesterol concentration”, the “GHb change (%)” value [3] was −0.4% and the “NF-κB activity (multiple)” value ([4]; 0.001 μM compound) was 13.2 multiple. The “NF-κB activity (multiple)” value ([4]; 0.003 μM compound) was 13.4 multiple, the “NF-κB activity (multiple)” value ([4]; 0.01 μM compound) was 13.7 multiple and the “NF-κB activity (multiple)” value ([4]; 0.03 μM compound) was 12.5 multiple. For the same compound, the “NF-κB activity (multiple)” value ([4]; 0.1 μM compound) was 10.7 multiple, the “NF-κB activity (multiple)” value ([4]; 0.3 μM compound) was 9.4 multiple and the “NF-κB activity (multiple)” value ([4]; 1 μM compound) was 9.3 multiple. For the same compound, the “NF-κB activity (multiple)” value ([4]; 3 μM compound) was 8.3 multiple, the “NF-κB activity (multiple)” value ([4]; 10 μM compound) was 9.0 multiple and the activity at 1 µM [5] was 196%. For the same compound, the “lactic acid production promoting action (%)” value [6] was 226.1%.
